In patent US4605785A, “1,1-diphenylpropanol derivatives, process for their preparation and pharmaceutical compositions containing them” (Richter Gedeon Vegyeszeti Gyar RT, priority 1982, dated 1986):

Experiments:
hexabarbital oxidase = experiment: Hexabarbital sleeping time (hexabarbital oxidase activity in vivo); parameters: species or system Hann.-Wistar rats; conditions: hexabarbital sodium 60 mg./kg. i.v., x ± S.E.; for Hexabarbital sleeping time in %-age of the control, 1 h: 1 h after single 40 mg./kg. oral dose; for Hexabarbital sleeping time in %-age of the control, 24 h: 24 h after single 40 mg./kg. oral dose
Method: The enzyme inducing activity was tested by the following methods: The change of hexabarbital oxidase activity was measured on Hann.-Wistar rats weighing 50-60 g. which were administered single 40 mg./kg. doses of the test compounds orally. One and 24 hours after treatment the animals were anaesthetized by a 60 mg./kg. i.v. dose of hexabarbital sodium, and the sleeping time, i.e. the time between the loss of righting reflex and full awakeness was measured (Noordhoex J.: Eur. J. Pharmacol., 3, 242, 1968). As a reference compound phenobarbital was used. The average of the groups and the standard error were determined. The results are given in Table 1, expressed in % of the control.

Hann.-Wistar rats = experiment: Acute toxicity, oral; assay type: in vivo; conditions: 500 mg./kg. p.o. single dose; 14 days observation
Method: (§1) The acute toxicity of the compounds of formula (I) was determined on Hann.-Wistar rats selected from both sexes, weighing 160-180 g. each. The test compounds were administered in a single 500 mg./kg. oral dose. […] The results are set forth in the following Table 3, in which the percentage of the dead animals is indicated.

cytochrome P-450 = experiment: Cytochrome P-450 concentration in liver after treatment; assay type: in vivo, Female Hann.-Wistar rats; conditions: 24 h after single 40 mg/kg. oral dose; control 12.8 ± 0.63 = 100 ± 4.9%
Method: (§2) To evaluate the enzyme inducing activity of the compounds of formula (I) the activity of the polysubstrate monooxygenase enzyme system of the liver, after treatment with placebo and the test compounds, respectively, was also tested. Female Hann.-Wistar rats weighing 50-60 g. each were administered a single 40 mg/kg. dose of the test compounds orally. 24 hours after treatment the animals were decapitated and their livers were eliminated. […] The cytochrome P-450 concentration was determined on the basis of the carbon monoxide differential spectrum of a reduced microsome suspension (Omura T. et al.: J. Biol. Chem. 239, 2370 (1964)). The quantity of cytochrome b-5 was determined from a NaDH differential spectrum (Raw J. et al.: J. Biol. Chem., 234, 1867 (1959)); the activity of NADPH: ferricytochrome C (P-450) reductase (E.C. 1.6.2.4) was measured by the method of Williams C. […] The activity of the aniline hydroxylase from the velocity of the p-amino-phenol formation was determined by the method of R. S. et al.: Toxicol. […] Pharmacol., 22, 50 (1972), while the aminopyrine-demethylase activity was measured by the quantity of the formaldehyde formed, using the method developed by Gourlay G. K. et al.: Biochem. Pharmacol., 27, 965 (1978). The protein content was determined using the method by Lowry O. H. et al.: J. Biochem., 193, 265 (1951). […]

aniline hydroxylase = experiment: Aniline hydroxylase activity in liver after treatment; assay type: in vivo, Female Hann.-Wistar rats; conditions: 24 h after single 40 mg/kg. oral dose; control 20.3 ± 0.88 = 100 ± 4.3%
Method: as §2

[1] = Microsomal protein content of liver after treatment (Lowry); assay type: in vivo, Female Hann.-Wistar rats; conditions: 24 h after single 40 mg/kg. oral dose; control 29.3 ± 1.01 = 100 ± 3.4%
Method: as §2

aminopyrine demethylase = experiment: Aminopyrine demethylase activity in liver after treatment; assay type: in vivo, Female Hann.-Wistar rats; conditions: 24 h after single 40 mg/kg. oral dose; control 254.8 ± 7.47 = 100 ± 2.9%
Method: as §2

[2] = Relative weight of liver after treatment; assay type: in vivo, Female Hann.-Wistar rats; conditions: 24 h after single 40 mg/kg. oral dose; control 4.3 ± 0.17 = 100 ± 3.9%
Method: as §2

cytochrome b-5 = experiment: Quantity of cytochrome b-5 in liver after treatment; assay type: in vivo, Female Hann.-Wistar rats; conditions: 24 h after single 40 mg/kg. oral dose; control 8.6 ± 0.43 = 100 ± 5.0%
Method: as §2

[3] = system: NADPH: ferricytochrome C (P-450) reductase (E.C. 1.6.2.4); experiment: Activity of NADPH: ferricytochrome C (P-450) reductase in liver after treatment; assay type: in vivo, Female Hann.-Wistar rats; conditions: 24 h after single 40 mg/kg. oral dose; control 4868 ± 296.2 = 100 ± 6.1%
Method: as §2

Acute toxicity, oral = assay type: in vivo, Hann.-Wistar rats; conditions: rat, in vivo, po
Method: as §1

[4] = CNS activity (electroshock, metrazole, thiosemicarbazide, strichnine, nicotine spasm, rotating rod, physostigmine lethality, yohimbine potentiation, analgesia); conditions: oral, already at 40 mg./kg.; in words
Method: The compounds of the formula (I) and phenobarbital were administered orally, in a dose of 40 mg./kg. and 80 mg./kg.

CCOC(=O)COc1ccccc1C(O)(CC)c1cccc(Cl)c1 (stereo not shown) [E, 1-(3-chlorophenyl)-1-[2-(ethoxycarbonylmethoxy)-phenyl]propane-1-ol]
Hexabarbital sleeping time in %-age of the control, 1 h (hexabarbital oxidase): 117 ± 1.1 % of the control | Hexabarbital sleeping time in %-age of the control, 24 h (hexabarbital oxidase): 58 ± 2.4 % of the control | Dead animals (%) (Hann.-Wistar rats): .phi.

CCN(CC)C(=O)COc1ccccc1C(O)(CC)c1cccc(Cl)c1 (stereo not shown) [Compound D, 1-(3-chlorophenyl)-1-[2-(diethylcarbamoylmethoxy)-phenyl]-propane-1-ol]
Hexabarbital sleeping time in %-age of the control, 1 h (hexabarbital oxidase): 139 ± 14.4 % of the control | Hexabarbital sleeping time in %-age of the control, 24 h (hexabarbital oxidase): 50 ± 3.0 % of the control | Dead animals (%) (Hann.-Wistar rats): .phi. | cytochrome P-450 (nmoles/g. of liver), % of the control (cytochrome P-450): 199 ± 17.7% | aniline hydroxylase (nmoles/g. of liver/min.), % of the control (aniline hydroxylase): 189 ± 12.3% | microsomal protein (mg./g. of liver), % of the control [1]: 120 ± 6.7% | aminopyrine demethylase (nmoles/g. of liver/min.), % of the control (aminopyrine demethylase): 129 ± 6.0% | relative weight of liver (g./100 g. of body weight), % of the control [2]: 107 ± 4.4% | cytochrome b-5 (nmoles/g. of liver), % of the control (cytochrome b-5): 122 ± 6.3% | C(P-450) reductase (nmoles/g. of liver/min.), % of the control [3]: 144 ± 11.9%

CCC(O)(c1cc(C)ccc1C)c1ccccc1OCc1ccccc1 (stereo not shown) [B, 1-(2,5-dimethylphenyl)-1-(2-benzyloxyphenyl)-propane-1-ol]
Hexabarbital sleeping time in %-age of the control, 1 h (hexabarbital oxidase): 119 ± 7.7 % of the control | Hexabarbital sleeping time in %-age of the control, 24 h (hexabarbital oxidase): 58 ± 8.0 % of the control | Dead animals (%) (Hann.-Wistar rats): .phi.

CCN(CC)C(=O)COc1ccc(C(O)(CC)c2cccc(C(F)(F)F)c2)cc1 (stereo not shown) [C, 1-(3-trifluoromethylphenyl)-1-[4-(diethylcarbamoylmethoxy)-phenyl]-propane-1-ol]
Hexabarbital sleeping time in %-age of the control, 1 h (hexabarbital oxidase): 170 ± 10.0 % of the control | Hexabarbital sleeping time in %-age of the control, 24 h (hexabarbital oxidase): 44 ± 2.0 % of the control | Dead animals (%) (Hann.-Wistar rats): .phi.

CCC1(c2ccccc2)C(=O)NC(=O)NC1=O [phenobarbital, reference compound]
Hexabarbital sleeping time in %-age of the control, 1 h (hexabarbital oxidase): 250 ± 15.8 % of the control | Hexabarbital sleeping time in %-age of the control, 24 h (hexabarbital oxidase): 60 ± 7.3 % of the control | mortality at 336 h (Acute toxicity, oral; 500 mg./kg. p.o. single dose, 14 days observation, read-out: Dead animals (%)): 100% | LD50 (Acute toxicity, oral; footnote to Table 3): 254 mg/kg | CNS activity (anticonvulsive, muscle coordinating, sedative) [4]: significant anticonvulsive muscle coordinating and sedative effect

CCC(O)(c1ccc(F)cc1)c1ccccc1OCc1ccccc1 (stereo not shown) [A, 1-(4-fluorophenyl)-1-(2-benzyloxyphenyl)-propane-1-ol]
Hexabarbital sleeping time in %-age of the control, 1 h (hexabarbital oxidase): 95 ± 20.2 % of the control | Hexabarbital sleeping time in %-age of the control, 24 h (hexabarbital oxidase): 46 ± 3.5 % of the control | Dead animals (%) (Hann.-Wistar rats): .phi. | cytochrome P-450 (nmoles/g. of liver), % of the control (cytochrome P-450): 170 ± 8.8% | aniline hydroxylase (nmoles/g. of liver/min.), % of the control (aniline hydroxylase): 168 ± 8.9% | microsomal protein (mg./g. of liver), % of the control [1]: 109 ± 3.8% | aminopyrine demethylase (nmoles/g. of liver/min.), % of the control (aminopyrine demethylase): 150 ± 11.1% | relative weight of liver (g./100 g. of body weight), % of the control [2]: 109 ± 2.5% | cytochrome b-5 (nmoles/g. of liver), % of the control (cytochrome b-5): 124 ± 3.8% | C(P-450) reductase (nmoles/g. of liver/min.), % of the control [3]: 155 ± 6.9%
